In ChEMBL document CHEMBL1201862, “PubChem BioAssay data set” (2004):
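The compound was tested at five concentrations on cells cultured in 96-well plates, with a 48-hour exposure period. GI50 marks 50% less growth.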 Calls of active or inactive are those of the source. Cut-off read from the data, not from the text of the source: active = GI50 up to about 1.1 µM and inactive = higher.

What was measured:
Test in all cases: NCI anticancer screen, dose series, 48 h
OVCAR-8 = tested on: OVCAR-8
PC-3 = tested on: PC-3
SK-MEL-28 = tested on: SK-MEL-28
HL-60 = tested on: HL-60
SF-268 = tested on: SF-268
HCC 2998 = tested on: HCC 2998
SR = tested on: SR
RXF 393 = tested on: RXF 393
Hs-578T = tested on: Hs-578T
LOX IMVI = tested on: LOX IMVI
HCT-116 = tested on: HCT-116
M14 = tested on: M14
SF-539 = tested on: SF-539
CCRF-CEM = tested on: CCRF-CEM
SK-MEL-5 = tested on: SK-MEL-5
NCI/ADR-RES = tested on: NCI/ADR-RES
RPMI-8226 = tested on: RPMI-8226
Malme-3M = tested on: Malme-3M
SN12C = tested on: SN12C
T47D = tested on: T47D
MCF7 = tested on: MCF7
SNB-75 = tested on: SNB-75
SNB-19 = tested on: SNB-19
EKVX = tested on: EKVX
CAKI-1 = tested on: CAKI-1
HOP-92 = tested on: HOP-92
MDA-N = tested on: MDA-N
NCI-H522 = tested on: NCI-H522
HT-29 = tested on: HT-29
MDA-MB-231 = tested on: MDA-MB-231
BT-549 = tested on: BT-549
UACC-62 = tested on: UACC-62
SK-MEL-2 = tested on: SK-MEL-2
786-0 = tested on: 786-0
HCT-15 = tested on: HCT-15
UO-31 = tested on: UO-31
SW-620 = tested on: SW-620
COLO 205 = tested on: COLO 205
OVCAR-5 = tested on: OVCAR-5
ACHN = tested on: ACHN
U-251 = tested on: U-251
A549 = tested on: A549
MOLT-4 = tested on: MOLT-4
MDA-MB-435 = tested on: MDA-MB-435
KM12 = tested on: KM12
K562 = tested on: K562
IGROV-1 = tested on: IGROV-1
NCI-H226 = tested on: NCI-H226
TK-10 = tested on: TK-10
NCI-H460 = tested on: NCI-H460
NCI-H23 = tested on: NCI-H23
OVCAR-4 = tested on: OVCAR-4
HOP-62 = tested on: HOP-62
OVCAR-3 = tested on: OVCAR-3
SF-295 = tested on: SF-295
DU-145 = tested on: DU-145
UACC-257 = tested on: UACC-257
A498 = tested on: A498

For `CCCCCCCCCC[C@H](O)[C@H]1CC[C@H]([C@H]2CC[C@H]([C@H](O)CC[C@H](O)CCCCCCC[C@@H](O)CC3=C[C@H](C)OC3=O)O2)O1`, the GI50 (OVCAR-8) was 85.7 µM (inactive), the GI50 (PC-3) was 5.7 µM (inactive) and the GI50 (SK-MEL-28) was > 10 µM (inactive). For the same compound, the GI50 (HL-60) was 2.51 µM (inactive), the GI50 (SF-268) was 3.57 µM (inactive) and the GI50 (HCC 2998) was > 100 µM (inactive). The GI50 (SR) was 9.14 µM (inactive), the GI50 (RXF 393) was 40 µM (inactive) and the GI50 (Hs-578T) was > 10 µM (inactive). The GI50 (LOX IMVI) was 7.46 µM (inactive), the GI50 (HCT-116) was < 10 nM (active) and the GI50 (M14) was 46.9 µM (inactive). The GI50 (SF-539) was 24 µM (inactive), the GI50 (CCRF-CEM) was 3.6 µM (inactive) and the GI50 (SK-MEL-5) was 1.41 µM (inactive). For the same compound, the GI50 (NCI/ADR-RES) was 1.61 µM (inactive), the GI50 (RPMI-8226) was 1.04 µM (active) and the GI50 (Malme-3M) was 25.8 µM (inactive). The GI50 (SN12C) was 91.4 µM (inactive), the GI50 (T47D) was 5.25 µM (inactive) and the GI50 (MCF7) was 1.52 µM (inactive). For the same compound, the GI50 (SNB-75) was 19.1 µM (inactive), the GI50 (SNB-19) was 17 µM (inactive) and the GI50 (EKVX) was 23.5 µM (inactive). The GI50 (CAKI-1) was 57 µM (inactive), the GI50 (HOP-92) was 6.93 µM (inactive) and the GI50 (MDA-N) was 8.75 µM (inactive). The GI50 (NCI-H522) was 10.7 µM (inactive), the GI50 (HT-29) was > 10 µM (inactive) and the GI50 (MDA-MB-231) was > 10 µM (inactive). The GI50 (BT-549) was 68.1 µM (inactive), the GI50 (UACC-62) was > 10 µM (inactive) and the GI50 (SK-MEL-2) was 78 µM (inactive). For the same compound, the GI50 (786-0) was 25.1 µM (inactive), the GI50 (HCT-15) was 43.9 µM and the GI50 (UO-31) was 2.02 µM (inactive). The GI50 (SW-620) was > 10 µM (inactive), the GI50 (COLO 205) was 12.2 µM (inactive) and the GI50 (OVCAR-5) was > 10 µM (inactive). For the same compound, the GI50 (ACHN) was 1.6 µM (inactive), the GI50 (U-251) was > 10 µM (inactive) and the GI50 (A549) was 4.6 µM (inactive). The GI50 (MOLT-4) was 2.96 µM (inactive), the GI50 (MDA-MB-435) was 3.9 µM (inactive) and the GI50 (KM12) was 9.14 µM (inactive). The GI50 (K562) was 2.96 µM (inactive), the GI50 (IGROV-1) was 15.7 µM (inactive) and the GI50 (NCI-H226) was 2.47 µM (inactive). The GI50 (TK-10) was 31 µM (inactive), the GI50 (NCI-H460) was 1.46 µM (inactive) and the GI50 (NCI-H23) was 1.82 µM (inactive). For the same compound, the GI50 (OVCAR-4) was 41.4 µM (inactive), the GI50 (HOP-62) was > 10 µM (inactive) and the GI50 (OVCAR-3) was 18.3 µM (inactive). For the same compound, the GI50 (SF-295) was 1.66 µM (inactive), the GI50 (DU-145) was > 10 µM (inactive) and the GI50 (UACC-257) was 1.08 µM (active). The GI50 (A498) was 1.75 µM (inactive).
